16 compounds from PubChem BioAssay (NCI) can be followed below.

Common to all, as to experiment: growth of human tumour cells (NCI), 48 h
Experiment [1] has as its system HCC-2998 colon.
Experiment [2] has as its system NCI/ADR-RES ovarian.
Experiment [3] relates to SNB-19 CNS.
Experiment [4] deals with SK-MEL-5 melanoma.
Experiment [5] relates to OVCAR-8 ovarian.
The test system of experiment [6] is HL-60(TB) leukemia.
The test system of experiment [7] is IGROV1 ovarian.
The test system of experiment [8] is CCRF-CEM leukemia.
Experiment [9] deals with KM12 colon.
The test system of experiment [10] is M14 melanoma.
The test system of experiment [11] is 786-0 renal.
Experiment [12] relates to SF-268 CNS.
The test system of experiment [13] is NCI-H23 lung.
Experiment [14] has as its system SN12C renal.
The test system of experiment [15] is SK-MEL-2 melanoma.
Experiment [16] relates to MOLT-4 leukemia.
Experiment [17] relates to RPMI-8226 leukemia.
For experiment [18], the system named is COLO 205 colon.
The subject of experiment [19] is HOP-92 NSCLC.

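Protocol summary: plate cells (96-well), add compound at 5 concentrations, incubate 48 h, interpolate endpoints linearly. TGI marks complete inhibition of growth.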 Where only a bound is given, the exact number is not on record here.

As to `COc1ccc(NS(=O)c2c(C)cc(C)cc2C)cc1` (stereo not drawn), the TGI in experiment [1] was more than 100 µM; in experiment [2] it was more than 100 µM; in experiment [3], more than 100 µM; in experiment [4] it was 92.1 µM; in experiment [5], more than 100 µM; in [6] it was more than 100 µM. Also, the TGI is more than 100 µM in experiment [7]; more than 100 µM in [8]; 98.8 µM in experiment [9]; more than 100 µM in experiment [10]; more than 100 µM in [11]; more than 100 µM in experiment [12]. For the same compound, the TGI in experiment [13], in experiment [14], in experiment [15], in experiment [16], in experiment [17] and in [18] was more than 100 µM throughout.
Take `CCc1ccc(Nc2cc(=O)n(C)c(SCc3ccccc3)n2)cc1`: the TGI in experiment [2], in [3], in experiment [4], in experiment [5], in experiment [6] and in experiment [7] was more than 100 µM each time. Further, the TGI was more than 100 µM in experiment [8]; more than 100 µM in experiment [9]; more than 100 µM in experiment [10]; more than 100 µM in experiment [19]; 34.4 µM in [11]; more than 100 µM in experiment [12]. Further, the TGI in experiment [13] is more than 100 µM; in experiment [14] it was 42.8 µM; in experiment [15], more than 100 µM; in experiment [16] it was more than 100 µM; in [18], 45.2 µM.
As to `O=C1CCN2C(=N1)Sc1ccccc12`, the TGI in experiment [2], in experiment [3], in experiment [4], in [5], in experiment [6] and in experiment [7] was more than 100 µM in each case. The TGI in experiment [8], in experiment [9], in experiment [10], in [19], in experiment [11] and in experiment [12] was more than 100 µM throughout. Further, the TGI in experiment [13], in experiment [14], in experiment [15], in experiment [16], in experiment [17] and in [18] was more than 100 µM each time.
Take `CN1C(C)(C)CC(=O)C(Br)C1(C)C` (stereo not drawn): the TGI in experiment [2], in experiment [3], in [4], in experiment [5], in experiment [6] and in [7] was more than 100 µM in each case. Moreover, the TGI in experiment [8], in experiment [9], in [10], in [19], in experiment [11] and in experiment [12] was more than 100 µM throughout. For the same compound, the TGI in experiment [13], in experiment [14], in experiment [15], in [16], in experiment [17] and in [18] was more than 100 µM each time.
As to `CN1CC=C(c2cccn2C)CC1`, the TGI in experiment [1], in [2], in experiment [3], in experiment [4], in experiment [5] and in experiment [6] was more than 100 µM in each case. The TGI in experiment [7], in experiment [8], in experiment [9], in experiment [10], in experiment [11] and in [12] was more than 100 µM in each case. Besides, the TGI in [13], in [14], in experiment [15], in experiment [16], in experiment [17] and in [18] was more than 100 µM each time.
For the compound `C/C1=C/C[C@@H](/C(C)=C/c2csc(C)n2)OC(=O)C[C@H](O)C(C)(C)C(=O)[C@H](C)[C@@H](O)[C@@H](C)CCC1`, the TGI came to 0.125 µM in experiment [1]; 0.000238 µM in [2]; 0.189 µM in experiment [3]; 0.167 µM in experiment [4]; 0.295 µM in [5]; 0.215 µM in experiment [7]. For the same compound, the TGI in [8] came to 0.894 µM; in experiment [9] it was 0.196 µM; in experiment [10], 0.23 µM; in experiment [19], 0.302 µM; in experiment [11] it was 0.228 µM; in experiment [13], 0.169 µM. For the same compound, the TGI in experiment [14] was found to be 0.209 µM; in experiment [15], 0.188 µM; in [16], 0.394 µM; in [17], 0.217 µM.
Turning to `Cc1c2ccccc2c(C2C3C(=O)N(c4cccc5ccccc45)C(=O)C3ON2Cc2ccc(CC(N)=O)cc2)c2ccccc12` (stereo not drawn), the TGI in experiment [2], in [3], in experiment [4], in experiment [5], in experiment [6] and in experiment [7] was more than 50 µM each time. The TGI in experiment [8], in experiment [9], in [10], in experiment [19], in experiment [11] and in [12] was more than 50 µM each time. Moreover, the TGI in [13] was more than 50 µM; in [14], more than 50 µM; in experiment [15] it was 31.3 µM; in experiment [16], 25.7 µM; in [18], 14.6 µM.
In the case of `CC(=O)O[C@H]1CC[C@@]2(C)C(=CC[C@@H]3[C@@H]2CC[C@](C)(c2nnc(C)o2)[C@H]3CC#N)C1`, the TGI in experiment [2], in experiment [3], in experiment [4], in experiment [5], in [6] and in experiment [7] was more than 100 µM each time. The TGI in experiment [8], in [9], in experiment [10], in [19], in [11] and in [12] was more than 100 µM in each case. Moreover, the TGI in experiment [13], in [14], in experiment [15], in experiment [16], in [17] and in [18] was more than 100 µM in each case.
For the compound `c1ccc2nn(C3CCCO3)nc2c1` (stereo not drawn), the TGI in [1], in [2], in experiment [4], in [5], in experiment [6] and in [7] was more than 100 µM each time. Further, the TGI in experiment [8], in [10], in [11], in experiment [12], in experiment [13] and in experiment [14] was more than 100 µM each time. The TGI in experiment [15], in [16] and in experiment [18] was more than 100 µM throughout.
As for `CC(CNC(=O)c1ccccc1)(CNC(=O)c1ccccc1)[N+](=O)[O-]`, the TGI was more than 100 µM in experiment [2]; 73.3 µM in [3]; more than 100 µM in [4]; more than 100 µM in experiment [5]; more than 100 µM in [6]; more than 100 µM in [7]. For the same compound, the TGI in experiment [9], in experiment [10], in experiment [19], in experiment [11], in [12] and in experiment [13] was more than 100 µM each time. Besides, the TGI in experiment [14], in experiment [15], in experiment [16], in experiment [17] and in experiment [18] was more than 100 µM each time.
Turning to `CCN(CC)C(=S)N/N=C/c1cc(OC)ccc1O`, the TGI in experiment [1] was 27.8 µM; in experiment [2] it was 40.4 µM; in [3], more than 100 µM; in [4], 70.5 µM; in experiment [5], more than 100 µM; in [6], 7.44 µM. In addition, the TGI in [7] is more than 100 µM; in experiment [8], 5.71 µM; in experiment [9], more than 100 µM; in experiment [10] it was 16.6 µM; in [11], more than 100 µM; in experiment [12], 11.3 µM. Besides, the TGI is more than 100 µM in [13]; 90.6 µM in experiment [14]; more than 100 µM in experiment [15]; 28.6 µM in experiment [16]; more than 100 µM in [18].
For the compound `C=C(CCC/C(C)=C/C=C/[C@H](C)CCCc1ccoc1)C[C@@H]1OC(=O)[C@H](C)[C@@H]1O`, the TGI in experiment [1] was found to be 37 µM; in experiment [2] it was 22.5 µM; in experiment [3], 17.1 µM; in [4], 17 µM; in [5], 27.5 µM; in [7], 24.6 µM. Also, the TGI turned out to be 33.6 µM in [8]; 23.3 µM in experiment [9]; 19.4 µM in experiment [10]; 18.5 µM in experiment [19]; 27.4 µM in [11]; 18.1 µM in [12]. The TGI in [13] turned out to be 18.2 µM; in experiment [14], 17.7 µM; in experiment [15] it was 17.8 µM; in [16], 29.5 µM; in experiment [17], 30.2 µM; in experiment [18], 27.4 µM.
With `O=C(/C=C/c1ccc(O)c(O)c1)NC(COC(=O)/C=C/c1ccc(O)c(O)c1)C(=O)O` (stereo not drawn), the TGI in experiment [1], in experiment [2], in experiment [3], in experiment [4], in experiment [5] and in experiment [7] was more than 100 µM throughout. Besides, the TGI in experiment [8], in [9], in [10], in experiment [19], in [11] and in [12] was more than 100 µM each time. The TGI in experiment [13], in experiment [14], in experiment [15], in experiment [16], in experiment [17] and in experiment [18] was more than 100 µM in each case.
With `N#CCC1C2CC3C(C2=O)C13` (stereo not drawn), the TGI in experiment [1], in [2], in [3], in experiment [4], in [5] and in experiment [7] was more than 100 µM throughout. Further, the TGI in experiment [8], in experiment [9], in [10], in experiment [19], in [11] and in [12] was more than 100 µM throughout. Also, the TGI in [13], in experiment [14], in experiment [15], in [16], in experiment [17] and in experiment [18] was more than 100 µM in each case.
As for `S=C(Nc1ccc2c(c1)oc1ccccc12)c1cccs1`, the TGI in [1], in [2], in experiment [3], in experiment [4], in experiment [5] and in experiment [6] was more than 100 µM in each case. The TGI in experiment [7] is more than 100 µM; in experiment [8], more than 100 µM; in experiment [10], more than 100 µM; in experiment [19] it was more than 100 µM; in experiment [11] it was 68.9 µM; in experiment [12], more than 100 µM. In addition, the TGI in experiment [13], in experiment [14], in experiment [15], in experiment [16] and in experiment [18] was more than 100 µM each time.
As for `O=c1nc2c(c(-c3ccc(F)cc3)[nH]1)COC/C2=C\c1ccc(F)cc1`, the TGI in experiment [1], in experiment [2], in [3], in [4], in experiment [5] and in [7] was more than 100 µM in each case. The TGI in [8], in experiment [9], in experiment [10], in experiment [19], in experiment [11] and in [12] was more than 100 µM in each case. Further, the TGI in [13], in experiment [14], in [15], in [16], in [17] and in experiment [18] was more than 100 µM each time.
